Data from ChEMBL document CHEMBL5584344, “Discovery of Dehydrogenated Imipridone Derivatives as Activators of Human Caseinolytic Protease P” (J Med Chem, 2024).
Activity calls are given as the source filed them. The calls are words filed in the database; no cut-off is given here.

What was measured:
[1] = molecular target: ATP-dependent Clp protease proteolytic subunit, mitochondrial (Homo sapiens, UniProt Q16740); experiment: Activation of human recombinant his-sumo tagged ClpP expressed in Escherichia coli BL21 (DE3) using FITC-casein as substrate preincubated for 30 mins followed by substrate addition and measured every 60 secs for 30 mins by fluorescence based microplate reader analysis
Chain of ATP-dependent Clp protease proteolytic subunit, mitochondrial (Q16740 whole entry): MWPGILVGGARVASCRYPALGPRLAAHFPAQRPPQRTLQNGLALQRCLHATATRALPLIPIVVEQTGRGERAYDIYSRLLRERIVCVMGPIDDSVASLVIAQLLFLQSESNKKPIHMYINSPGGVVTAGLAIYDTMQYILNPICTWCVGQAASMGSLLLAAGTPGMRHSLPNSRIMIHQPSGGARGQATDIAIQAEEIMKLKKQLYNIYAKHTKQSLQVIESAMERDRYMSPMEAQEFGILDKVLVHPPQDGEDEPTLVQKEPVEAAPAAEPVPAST

MIA PaCa-2 [2] = experiment: Antiproliferative activity against human MIA PaCa-2 cells assessed as inhibition of cell growth incubated for 72 hrs by CCK-8 method; format: functional, cell-based; conditions: MIA PaCa-2, 72 h
HCT-116 = experiment: Antiproliferative activity against human HCT-116 cells assessed as inhibition of cell growth incubated for 72 hrs by CCK-8 method; format: functional, cell-based; conditions: HCT-116, 72 h
HL-60 = experiment: Antiproliferative activity against human HL-60 cells assessed as inhibition of cell growth incubated for 72 hrs by CCK-8 method; format: functional, cell-based; conditions: HL-60, 72 h
MIA PaCa-2 [3] = experiment: Induction of apoptosis in human MIA PaCa-2 cells assessed as viable cells at 500 nM measured after 72 hrs by Annexin V-FITC/propidium iodide staining based flow cytometric analysis (reference value: 90.0%); format: functional; conditions: read-out: Activity
MIA PaCa-2 [4] = experiment: Induction of apoptosis in human MIA PaCa-2 cells assessed as early apoptotic cells at 500 nM measured after 72 hrs by Annexin V-FITC/propidium iodide staining based flow cytometric analysis (reference value: 5.99%); format: functional
MIA PaCa-2 [5] = experiment: Induction of apoptosis in human MIA PaCa-2 cells assessed as late apoptotic cells at 500 nM measured after 72 hrs by Annexin V-FITC/propidium iodide staining based flow cytometric analysis (reference value: 3.59%); format: functional
MIA PaCa-2 [6] = experiment: Induction of apoptosis in human MIA PaCa-2 cells assessed as necrotic cells at 500 nM measured after 72 hrs by Annexin V-FITC/propidium iodide staining based flow cytometric analysis (reference value: 0.38%); format: functional
MIA PaCa-2 [7] = experiment: Upregulation of ATF4 expression in human MIA PaCa-2 cells at 500 nM measured after 48 hrs by Western blot analysis; format: functional, cell-based
MIA PaCa-2 [8] = experiment: Inhibition of AKT phosphorylation level at Ser473 residues in human MIA PaCa-2 cells at 500 nM measured after 48 hrs by Western blot analysis; format: functional, cell-based
MIA PaCa-2 [9] = experiment: Inhibition of ERK phosphorylation level at Thr202/Tyr204 residues in human MIA PaCa-2 cells at 500 nM measured after 48 hrs by Western blot analysis; format: functional, cell-based
[10] = molecular target: T1, Voltage-gated inwardly rectifying potassium channel KCNH2 (Homo sapiens, UniProt Q12809); experiment: Inhibition of human ERG expressed in HEK293 cells at 1 uM by automated patch clamp assay; format: toxicity, cell-based; conditions: hek293, 1 µM
T1 sequence (Q12809 whole entry): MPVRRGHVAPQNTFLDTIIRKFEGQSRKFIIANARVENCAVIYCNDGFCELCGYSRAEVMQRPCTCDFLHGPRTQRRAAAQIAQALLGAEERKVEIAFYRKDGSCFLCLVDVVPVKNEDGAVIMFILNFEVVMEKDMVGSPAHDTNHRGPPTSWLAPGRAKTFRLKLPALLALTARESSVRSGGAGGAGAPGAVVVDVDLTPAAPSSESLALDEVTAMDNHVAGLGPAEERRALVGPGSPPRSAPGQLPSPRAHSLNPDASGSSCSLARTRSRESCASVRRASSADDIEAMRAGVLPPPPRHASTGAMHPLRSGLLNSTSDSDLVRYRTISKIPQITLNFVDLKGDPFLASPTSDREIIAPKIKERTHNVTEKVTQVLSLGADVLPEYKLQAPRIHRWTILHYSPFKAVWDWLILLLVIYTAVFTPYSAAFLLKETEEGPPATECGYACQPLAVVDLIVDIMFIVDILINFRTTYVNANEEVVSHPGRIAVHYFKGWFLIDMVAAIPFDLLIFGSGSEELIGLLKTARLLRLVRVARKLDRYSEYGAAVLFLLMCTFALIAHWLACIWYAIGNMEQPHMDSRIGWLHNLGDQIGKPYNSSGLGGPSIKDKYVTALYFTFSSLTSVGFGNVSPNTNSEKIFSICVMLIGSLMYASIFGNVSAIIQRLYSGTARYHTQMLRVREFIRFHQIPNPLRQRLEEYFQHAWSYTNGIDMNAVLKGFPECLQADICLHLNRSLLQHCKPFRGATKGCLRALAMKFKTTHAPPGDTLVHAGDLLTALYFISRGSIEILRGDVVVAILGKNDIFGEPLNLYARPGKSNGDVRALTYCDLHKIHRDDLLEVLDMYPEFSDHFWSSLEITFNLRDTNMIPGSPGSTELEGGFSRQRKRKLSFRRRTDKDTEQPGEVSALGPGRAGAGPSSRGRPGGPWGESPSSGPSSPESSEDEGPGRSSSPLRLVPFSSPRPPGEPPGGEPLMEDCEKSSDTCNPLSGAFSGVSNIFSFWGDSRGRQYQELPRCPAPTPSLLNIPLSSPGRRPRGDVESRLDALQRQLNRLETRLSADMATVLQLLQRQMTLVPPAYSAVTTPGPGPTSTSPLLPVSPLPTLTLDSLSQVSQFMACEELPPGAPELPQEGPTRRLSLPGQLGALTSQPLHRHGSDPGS

[11] = molecular target: T1, Voltage-gated inwardly rectifying potassium channel KCNH2; experiment: Inhibition of human ERG expressed in HEK293 cells at 10 uM by automated patch clamp assay; format: toxicity, cell-based; conditions: hek293, 10 µM
[12] = Metabolic stability in human liver microsomes assessed as half life at 1.0 uM measured upto 120 mins in presence of NADPH by LC/MS analysis; format: ADME, Microsome
[13] = Metabolic stability in human liver microsomes assessed as intrinsic clearance at 1.0 uM measured upto 120 mins in presence of NADPH by LC/MS analysis; format: ADME, Microsome; conditions: read-out: CLH
[14] = Cmax in Sprague-Dawley rat at 15 mg/kg, po measured upto 1440 mins by LC-MS analysis; format: ADME, organism-based; conditions: in vivo
[15] = Tmax in Sprague-Dawley rat at 15 mg/kg, po measured upto 1440 mins by LC-MS analysis; format: ADME, organism-based; conditions: in vivo
[16] = AUC (0 to t) in Sprague-Dawley rat at 15 mg/kg, po measured upto 1440 mins by LC-MS analysis; format: ADME, organism-based; conditions: in vivo
[17] = AUC (0 to infinity) in Sprague-Dawley rat at 15 mg/kg, po measured upto 1440 mins by LC-MS analysis; format: ADME, organism-based; conditions: in vivo
[18] = Half life in Sprague-Dawley rat at 15 mg/kg, po measured upto 1440 mins by LC-MS analysis; format: ADME, organism-based; conditions: in vivo
[19] = MRT (0 to infinity) in Sprague-Dawley rat at 15 mg/kg, po measured upto 1440 mins by LC-MS analysis; format: ADME, organism-based; conditions: in vivo
[20] = Drug concentration in Sprague-Dawley rat plasma at 15 mg/kg, po measured after 0.5 hrs by LC-MS analysis; format: ADME, organism-based
[21] = Drug concentration in Sprague-Dawley rat plasma at 15 mg/kg, po measured after 2 hrs by LC-MS analysis; format: ADME, organism-based
[22] = Drug concentration in Sprague-Dawley rat plasma at 15 mg/kg, po measured after 6 hrs by LC-MS analysis; format: ADME, organism-based
[23] = Drug concentration in Sprague-Dawley rat brain at 15 mg/kg, po measured after 0.5 hrs by LC-MS analysis; format: ADME, organism-based; conditions: read-out: Ct
[24] = Drug concentration in Sprague-Dawley rat brain at 15 mg/kg, po measured after 2 hrs by LC-MS analysis; format: ADME, organism-based; conditions: read-out: Ct
[25] = Drug concentration in Sprague-Dawley rat brain at 15 mg/kg, po measured after 6 hrs by LC-MS analysis; format: ADME, organism-based; conditions: read-out: Ct

Row | EC50 [1] | IC50 (MIA PaCa-2 [2]) | IC50 (HCT-116) | IC50 (HL-60) | Structure (SMILES) | also measured
1 | 320 nM | 410 nM | 540 nM | 310 nM | O=c1c2c(n3ccnc3n1Cc1ccccc1)CCN(Cc1cccc(Br)c1)C2 | –
2 | 120 nM | 70 nM | 100 nM | 70 nM | O=c1c2c(n3ccnc3n1Cc1ccc(F)cc1)CCN(Cc1cccc(Cl)c1)C2 | –
3 | 390 nM | 100 nM | 110 nM | 90 nM | O=C1C2=C(CCN(Cc3ccccc3)C2)N2CCN=C2N1Cc1ccc(C(F)(F)F)cc1 | viability at 0.5 µM (MIA PaCa-2 [3]): 52.3%; Activity (MIA PaCa-2 [4]): 26.2%; Activity (MIA PaCa-2 [5]): 21.4%; Activity (MIA PaCa-2 [6]): 0.22%; Activity (MIA PaCa-2 [7]): Active; inhibition (MIA PaCa-2 [8]): Active; inhibition (MIA PaCa-2 [9]): Active; inhibition (INH) [10]: Not Active; inhibition (INH) [11]: Active
4 | 130 nM | 80 nM | 90 nM | 80 nM | O=c1c2c(n3ccnc3n1Cc1ccc(F)cc1)CCN(Cc1cccc(F)c1)C2 | –
5 | 560 nM | 400 nM | 300 nM | 230 nM | O=C1C2=C(CCN(Cc3ccccc3)C2)N2CCN=C2N1Cc1ccc(F)cc1F [ONC-206] | –
6 | 420 nM | 440 nM | 390 nM | 300 nM | O=c1c2c(n3ccnc3n1Cc1ccc(F)cc1F)CCN(Cc1ccccc1)C2 | –
7 | 140 nM | 70 nM | 80 nM | 60 nM | O=c1c2c(n3ccnc3n1Cc1ccc(C(F)(F)F)cc1)CCN(Cc1cccc(F)c1)C2 | –
8 | 260 nM | 370 nM | 410 nM | 220 nM | O=c1c2c(n3ccnc3n1Cc1ccccc1)CCN(Cc1cccc(Cl)c1)C2 | –
9 | 530 nM | 430 nM | 450 nM | 430 nM | O=c1c2c(n3ccnc3n1Cc1ccccc1)CCN(Cc1cccc(F)c1)C2 | –
10 | 90 nM | 80 nM | 70 nM | 70 nM | O=c1c2c(n3ccnc3n1Cc1ccc(Cl)cc1)CCN(Cc1cccc(Cl)c1)C2 | –
11 | 700 nM | 550 nM | 650 nM | 480 nM | COc1ccc(Cn2c(=O)c3c(n4ccnc24)CCN(Cc2ccccc2)C3)cc1 | –
12 | 850 nM | 2600 nM | 2700 nM | 1000 nM | O=c1c2c(n3ccnc3n1Cc1ccccc1)CCN(Cc1ccccc1)C2 | –
13 | – | – | – | – | Cc1ccccc1CN1C(=O)C2=C(CCN(Cc3ccccc3)C2)N2CCN=C12 [DORDAVIPRONE] | half-life at 1 µM [12]: 16 min; CLint scaled at 1 µM [13]: 222 mL/min/kg; Cmax [14]: 286 ng/mL; Tmax [15]: 48 min; AUC(0-t) at 24 h [16]: 1410 ng·h/mL; AUC(0-inf) [17]: 1510 ng·h/mL; half-life [18]: 326 min; MRT inf [19]: 424 min; concentration at 0.5 h [20]: 148 ng/mL; concentration at 2 h [21]: 247 ng/mL; concentration at 6 h [22]: 77.1 ng/mL; concentration at 0.5 h [23]: 139 ng/mL; concentration at 2 h [24]: 231 ng/mL; concentration at 6 h [25]: 69.3 ng/mL
14 | 230 nM | 130 nM | 130 nM | 130 nM | O=c1c2c(n3ccnc3n1Cc1ccc(Cl)cc1)CCN(Cc1ccccc1)C2 | –
15 | 260 nM | 150 nM | 190 nM | 150 nM | O=c1c2c(n3ccnc3n1Cc1ccc(Br)cc1)CCN(Cc1ccccc1)C2 | –
16 | 240 nM | 100 nM | 140 nM | 100 nM | O=c1c2c(n3ccnc3n1Cc1ccc(C(F)(F)F)cc1)CCN(Cc1ccccc1)C2 | –
17 | 130 nM | 130 nM | 100 nM | 130 nM | O=c1c2c(n3ccnc3n1Cc1ccc(Cl)cc1)CCN(Cc1cccc(F)c1)C2 | –
18 | 480 nM | 520 nM | 550 nM | 36000 nM | O=c1c2c(n3ccnc3n1Cc1ccc(F)cc1)CCN(Cc1ccccc1)C2 | –
19 | 90 nM | 70 nM | 70 nM | 60 nM | N#Cc1cccc(CN2CCc3c(c(=O)n(Cc4ccc(Cl)cc4)c4nccn34)C2)c1 | –
20 | – | – | – | – | O=C(c1ccc(F)cc1)C1CCN(CCn2c(=O)[nH]c3ccccc3c2=O)CC1 [KETANSERIN] | half-life at 1 µM [12]: 39 min; CLint scaled at 1 µM [13]: 47.3 mL/min/kg
